Literature values, collected in patent publication US20070014819A1, “Method of emulsifying phytosterol by natural saponin,emulsion prepared thereby and water dispersible phytosterol powder product” (WECKTECK BIOTECHNOLOGY COMPANY LIMITED, priority 2005, published 2007).

Experiments:
[1] = around the world
[2] = administered orally directly
[3] = purified

Compound | people dead from the side effects [1] | absorption rate in a human body [2] | solubility in water or oil and most solvents [3] | reduction of total cholesterol in blood (cholesterol in blood; daily intake of 1.4 g for one month) | reduction of the concentration of LDL (cholesterol in blood; daily intake of more than 1.3 g, FDA article)
COCc1c(C(C)C)nc(C(C)C)c(/C=C/[C@@H](O)C[C@@H](O)CC(=O)O)c1-c1ccc(F)cc1 [Baycol, cerivastatin] | more than 100 people |  |  |  | 
CC(C)CCC[C@@H](C)[C@H]1CC[C@H]2[C@@H]3CC=C4C[C@@H](O)CC[C@]4(C)[C@H]3CC[C@]12C [cholesterol, reference compound] |  | more than 50% |  |  | 
β-sitosterol [phytosterol] |  | less than 5% | difficult to be dissolved | about 14% | effectively reduce
